Source: patent publication US20260078103A1, “ISOQUINOLONES AS PI3K INHIBITORS” (OnKure, Inc., priority 2022, published 2026)
Like-named read-outs stand apart in the source and are kept apart here.

Columns and labels:
Assay type in all cases: cell-based
[1] = test system: T47D cells expressing mutant PI3Ka (H1047R); experiment: In vitro cell proliferation, T47D cells (CellTiter-Glo); details: inhibition of proliferation, read-out: Avg T-47D EC50
Method in brief: (§1)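 Proliferation was read by CellTiter-Glo luminescence after 72 h of exposure to 10-point compound dilutions at 37 °C and 5% CO2. T47D (RPMI, 10% FBS, insulin 0.2 units/mL) and SKBR3 (McCoys 5a, 10% FBS) cells were seeded at 1,500 cells/well. EC50 was fitted from inhibition relative to DMSO and 10 uM Alpelisib.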

[2] = test system: SKBR3 cells express WT PI3Ka; experiment: In vitro cell proliferation, SKBR3 cells (CellTiter-Glo); details: inhibition of proliferation
Method in brief: as §1

[3] = test system: phosphorylation of AKT (pAKT) in T47D cells expressing mutant PI3Ka (H1047R); experiment: In vitro cell pAKT (Ser473) HTRF, T47D cells; details: cellular pAKT, T47D cells, mutant PI3Ka (H1047R), 6 hours, read-out: Avg T-47D IC50
Method in brief: (§2)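 T47D cells (RPMI, 10% FBS, 0.2 units/mL insulin) or SKBR3 cells (McCoy's 5a, 10% FBS) were seeded onto 10-point compound dilutions and incubated 6 h at 37 °C. After lysis, pAKT was detected overnight by HTRF (Eu cryptate/d2). IC50 was fitted from % inhibition relative to 0.1% DMSO and 10 uM alpelisib controls.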

[4] = test system: phosphorylation of AKT (pAKT) in SKBR3 cells express WT PI3Ka; experiment: In vitro cell pAKT (Ser473) HTRF, SKBR3 cells; details: cellular pAKT
Method in brief: as §2

| SMILES | EC50 ([1]; 72 hours) [µM] | EC50 ([2]; 72 hours) [µM] | IC50 [3] [µM] | IC50 ([4]; 6 hours) [µM] | IC50 ([4]; Homo sapiens, SK-BR-3, 6 h) [µM] | EC50 ([2]; Homo sapiens, SK-BR-3, 72 h) [µM] | EC50 ([1]; Homo sapiens, T47D, 72 h) [µM] | IC50 ([3]; Homo sapiens, T47D, 6 h) [µM] |
| --- | --- | --- | --- | --- | --- | --- | --- | --- |
| COCCC(=O)N1CCN(c2cc3c(C(C)Nc4ccccc4C(=O)O)cc(C)cc3c(=O)n2C)CC1 (single isomer, unassigned) [Example 112] | 2 to 15 | > 15 | > 15 | – | > 15 | – | – | – |
| Cc1cc(C(C)Nc2ccccc2C(=O)O)c2cc(N3C[C@H]4CCCC[C@@H]4C3)n(C)c(=O)c2c1 (single isomer, unassigned) [Example 115] | 0.001 to 0.5 | > 15 | > 15 | > 15 | – | – | – | – |
| Cc1cc(C(C)Nc2ccccc2C(=O)O)c2cc(N3CCN4CC(F)(F)CC4C3)n(C)c(=O)c2c1 (single isomer, unassigned) [Example 121] | 0.5 to 2 | > 15 | 0.001 to 0.5 | > 15 | – | – | – | – |
| Cc1cc(C(C)Nc2ccccc2C(=O)O)c2cc(N3CCN4C(=O)CCC4C3)n(C)c(=O)c2c1 (single isomer, unassigned) [Example 123] | > 15 | > 15 | > 15 | > 15 | – | – | – | – |
| Cc1cc(C(C)Nc2ccccc2C(=O)O)c2cc(N3CCN4C(=O)CCC4C3)n(C)c(=O)c2c1 (single isomer, unassigned) [Example 124] | 0.5 to 2 | > 15 | 2 to 15 | > 15 | – | – | – | – |
| COc1cccc(C#Cc2cc3c(C(C)Nc4ccccc4C(=O)O)cc(C)cc3c(=O)n2C)c1 (single isomer, unassigned) [Example 125] | 2 to 15 | > 15 | > 15 | > 15 | – | – | – | – |
| COc1cccc(C#Cc2cc3c(C(C)Nc4ccccc4C(=O)O)cc(C)cc3c(=O)n2C)c1 (single isomer, unassigned) [Example 126] | 0.001 to 0.5 | > 15 | 0.001 to 0.5 | > 15 | – | – | – | – |
| Cc1cc(C(C)Nc2ccc(Cl)nc2C(=O)O)c2cc(N3Cc4ccc(F)cc4C3)n(C)c(=O)c2c1 (single isomer, unassigned) [Example 127] | 2 to 15 | > 15 | > 15 | > 15 | – | – | – | – |
| Cc1cc(C(C)Nc2ccc(Cl)nc2C(=O)O)c2cc(N3Cc4ccc(F)cc4C3)n(C)c(=O)c2c1 (single isomer, unassigned) [Example 128] | 0.001 to 0.5 | 2 to 15 | 0.001 to 0.5 | 2 to 15 | – | – | – | – |
| CCOc1ccc(-c2cc3c(C(C)Nc4ccccc4C(=O)O)cc(C)cc3c(=O)n2C)cn1 (single isomer, unassigned) [Example 133] | 2 to 15 | > 15 | > 15 | > 15 | – | – | – | – |
| Cc1cc(C(C)Nc2ccccc2C(=O)O)c2cc(N3CCN4C(=O)CCC4C3)n(C)c(=O)c2c1 (single isomer, unassigned) [Example 134] | – | – | – | – | > 15 | > 15 | 2 to 15 | > 15 |
| CC(=O)N1CCC2(CC1)CCN(c1cc3c(C(C)Nc4ccccc4C(=O)O)cc(C)cc3c(=O)n1C)CC2 (single isomer, unassigned) [Example 135] | 2 to 15 | > 15 | > 15 | > 15 | – | – | – | – |
| CC(=O)N1CCC2(CC1)CCN(c1cc3c(C(C)Nc4ccccc4C(=O)O)cc(C)cc3c(=O)n1C)CC2 (single isomer, unassigned) [Example 136] | 0.001 to 0.5 | 2 to 15 | 0.001 to 0.5 | 2 to 15 | – | – | – | – |
| Cc1cc(C(C)Nc2ccccc2C(=O)O)c2cc(N3CCN4CCC[C@H]4C3)n(C)c(=O)c2c1 (single isomer, unassigned) [Example 138] | > 15 | – | > 15 | – | > 15 | > 15 | – | – |
| Cc1cc(C(C)Nc2ccccc2C(=O)O)c2cc(N3CCN4CCC[C@H]4C3)n(C)c(=O)c2c1 (single isomer, unassigned) [Example 139] | 0.5 to 2 | > 15 | 0.5 to 2 | > 15 | – | – | – | – |
| Cc1cc(C(C)Nc2ccccc2C(=O)O)c2cc(N3CCN4C(=O)OC[C@H]4C3)n(C)c(=O)c2c1 (single isomer, unassigned) [Example 141] | > 15 | – | > 15 | – | > 15 | > 15 | – | – |
| Cc1cc(C(C)Nc2ccccc2C(=O)O)c2cc(N3CCN(c4ccc(C)nc4)CC3)n(C)c(=O)c2c1 (single isomer, unassigned) [Example 145] | – | – | – | – | 2 to 15 | 2 to 15 | 0.001 to 0.5 | 0.001 to 0.5 |
| Cc1cc(C(C)Nc2ccccc2C(=O)O)c2cc(N3CCN(c4ccc(C)nc4)CC3)n(C)c(=O)c2c1 (single isomer, unassigned) [Example 146] | 2 to 15 | > 15 | > 15 | > 15 | – | – | – | – |

The remaining lines, values ahead:

| EC50 ([1]; 72 hours) [µM] | EC50 ([2]; 72 hours) [µM] | IC50 [3] [µM] | IC50 ([4]; 6 hours) [µM] | IC50 ([4]; Homo sapiens, SK-BR-3, 6 h) [µM] | EC50 ([2]; Homo sapiens, SK-BR-3, 72 h) [µM] | EC50 ([1]; Homo sapiens, T47D, 72 h) [µM] | IC50 ([3]; Homo sapiens, T47D, 6 h) [µM] | SMILES |
| --- | --- | --- | --- | --- | --- | --- | --- | --- |
| 0.001 to 0.5 | 2 to 15 | 0.001 to 0.5 | 2 to 15 | – | – | – | – | Cc1cc(C(C)Nc2ccccc2C(=O)O)c2cc(N3CCC4(CCN(CC(F)(F)F)CC4)CC3)n(C)c(=O)c2c1 (single isomer, unassigned) [Example 111] |
| 0.001 to 0.5 | 2 to 15 | 0.5 to 2 | > 15 | – | – | – | – | COCCC(=O)N1CCN(c2cc3c(C(C)Nc4ccccc4C(=O)O)cc(C)cc3c(=O)n2C)CC1 (single isomer, unassigned) [Example 113] |
| > 15 | > 15 | > 15 | > 15 | – | – | – | – | Cc1cc(C(C)Nc2ccccc2C(=O)O)c2cc(N3C[C@@H]4CCCC[C@H]4C3)n(C)c(=O)c2c1 (single isomer, unassigned) [Example 114] |
| 2 to 15 | > 15 | > 15 | > 15 | – | – | – | – | Cc1cc(C(C)Nc2ccccc2C(=O)O)c2cc(N3CCN4CC(F)(F)CC4C3)n(C)c(=O)c2c1 (single isomer, unassigned) [Example 122] |
| 2 to 15 | > 15 | > 15 | > 15 | – | – | – | – | Cc1cc(C(C)Nc2ccccc2C(=O)O)c2cc(N3CCN(C(=O)OC(C)C)CC3)n(C)c(=O)c2c1 (single isomer, unassigned) [Example 131] |
| 0.001 to 0.5 | – | 0.001 to 0.5 | – | > 15 | > 15 | – | – | CCOc1ccc(-c2cc3c(C(C)Nc4ccccc4C(=O)O)cc(C)cc3c(=O)n2C)cn1 (single isomer, unassigned) [Example 132] |
| – | – | – | – | > 15 | > 15 | 0.5 to 2 | 0.001 to 0.5 | Cc1cc(C(C)Nc2ccccc2C(=O)O)c2cc(N3CCN4CCC[C@@H]4C3)n(C)c(=O)c2c1 (single isomer, unassigned) [Example 137] |
| 0.5 to 2 | > 15 | 2 to 15 | > 15 | – | – | – | – | Cc1cc(C(C)Nc2ccccc2C(=O)O)c2cc(N3CCN4C(=O)OC[C@H]4C3)n(C)c(=O)c2c1 (single isomer, unassigned) [Example 142] |
| – | – | > 15 | – | > 15 | > 15 | > 15 | – | Cc1cc(C(C)Nc2ccccc2C(=O)O)c2cc(C#Cc3cccc(Cl)c3)n(C)c(=O)c2c1 (single isomer, unassigned) [Example 143] |
| > 15 | > 15 | 0.5 to 2 | > 15 | – | – | – | – | Cc1cc(C(C)Nc2ccccc2C(=O)O)c2cc(C#Cc3cccc(Cl)c3)n(C)c(=O)c2c1 (single isomer, unassigned) [Example 144] |
